# Test results as given in ChEMBL document CHEMBL1157519, “Cytotoxic acylated triterpene saponins from the husks of Xanthoceras sorbifolia” (J Nat Prod, 2008).
# System: OVCAR-3
# Experiment: Growth inhibition of human OVCAR-3 cells by MTT assay
# Assay type: functional, cell-based
row,IC50,Structure (SMILES)
1,4.2 µM,C/C=C(/C)C(=O)O[C@H]1[C@H](OC(=O)C(C)C)[C@]2(CO)[C@H](O)[C@H](O)[C@]3(C)C(=CC[C@@H]4[C@@]5(C)CC[C@H](O[C@@H]6O[C@H](C(=O)O)[C@@H](O)[C@H](O[C@@H]7O[C@@H](CO)[C@H](O)[C@H]7O)[C@H]6O[C@@H]6O[C@H](CO)[C@H](O)[C@H](O)[C@H]6O)[C@@H](C)[C@@H]5CC[C@]43C)[C@@H]2CC1(C)C
2,4.8 µM,C/C=C(/C)C(=O)O[C@H]1[C@H](OC(=O)/C(C)=C\C)[C@]2(CO)[C@H](O)C[C@]3(C)C(=CC[C@@H]4[C@@]5(C)CC[C@H](O[C@@H]6O[C@H](C(=O)O)[C@@H](O)[C@H](O[C@@H]7O[C@@H](CO)[C@H](O)[C@H]7O)[C@H]6O[C@@H]6O[C@H](CO)[C@H](O)[C@H](O)[C@H]6O)[C@@H](C)[C@@H]5CC[C@]43C)[C@@H]2CC1(C)C
3,13.1 µM,C/C=C(/C)C(=O)O[C@H]1[C@H](O)[C@]2(COC(=O)C(C)CC)[C@H](O)[C@H](O)[C@]3(C)C(=CC[C@@H]4[C@@]5(C)CC[C@H](O[C@@H]6O[C@H](C(=O)O)[C@@H](O)[C@H](O[C@@H]7O[C@@H](CO)[C@H](O)[C@H]7O)[C@H]6O[C@@H]6O[C@H](CO)[C@@H](O)[C@H](O)[C@H]6O)[C@@H](C)[C@@H]5CC[C@]43C)[C@@H]2CC1(C)C (some centres undefined)
4,4 µM,C/C=C(/C)C(=O)O[C@H]1[C@H](OC(=O)/C(C)=C\C)[C@]2(CO)[C@H](O)[C@H](O)[C@]3(C)C(=CC[C@@H]4[C@@]5(C)CC[C@H](O[C@@H]6O[C@H](C(=O)O)[C@@H](O)[C@H](O[C@@H]7O[C@@H](CO)[C@H](O)[C@H]7O)[C@H]6O[C@@H]6O[C@H](CO)[C@H](O)[C@H](O)[C@H]6O)[C@@H](C)[C@@H]5CC[C@]43C)[C@@H]2CC1(C)C
